The assay can be described thus: biological activity of the synthetic peptide compared with the biogenic material isolated from urine (test not described; anorexigenic properties stated). The conditions noted are these: no method or figures given.

Drawing on patent EP0001174A1, “A peptide and the salts thereof, processes for their preparation and compositions containing them” (NYEGAARD & CO. A/S, priority 1977, dated 1979), this text covers biological activity for one compound.

SMILES strings stand for the structures. Non-standard residues stand in square brackets, D forms with d. Residues, ends and D or L forms follow the SMILES beside them. pGlu = O=C1CC[C@@H](C(=O)O)N1

For the compound `O=C(O)CNC(=O)[C@H](Cc1cnc[nH]1)NC(=O)[C@@H]1CCC(=O)N1` [synthetic peptide, L-(pyro)glutamyl-L-histidyl-glycine] ([pGlu]-His-Gly-OH), the biological activity entry was “comparable biological activity”.
